The source of these data is PMC7613620, “Reaction hijacking of tyrosine tRNA synthetase as a whole-of-life-cycle antimalarial strategy” (Science (New York, N.Y.), 2022).

This experiment relates to P. falciparum 3D7 clones selected with ML901 (D4, F7, B11). The experiment in a line: In vitro evolved ML901-resistant 3D7 clones, IC50_72h. It is filed as cell-based, Plasmodium falciparum. On the procedure:
537 Screening of nucleoside sulfamates for inhibition of the growth of cultures of P. falciparum (3D7).
538 High throughput screening of compounds from the Takeda library was performed by SCYNEXIS, Inc.
539 Jersey City, NJ, USA. Synchronized (5% sorbitol) ring stage parasites (3D7 strain; 1.5% haematocrit; 0.1
540 – 0.5% starting parasitemia) were incubated in 96-well plates, in triplicate, diluted in DMSO, for 72 h in
541 RPMI 1640 supplemented with 10% human serum, 5% CO2, 5% O2, 90% N2. Infected RBCs were lysed
542 with 10 mM Tris HCl, 5 mM EDTA, 0.008% saponin, 0.08% Triton X-100, pH 7.5, containing SYBR
543 Green. Following incubation for 15-60 min, fluorescence signal was assessed. Sigmoidal dose response
544 curves were generated and the IC50 values determined using CLfit curve fitting software from IDBS […]
549 stage parasites (3D7 strain (43)) were incubated with the inhibitors for 72 h and viability was assessed in […]
638 precipitated with acetonitrile and the remaining compound was assessed by LC-MS/MS in the selected reaction […]
648 0.5% formic acid in methanol and the supernatants were analysed by positive ion electrospray LC-MS for
649 the administered compound. Non-compartmental pharmacokinetic parameters were calculated from […]
660 IGM Genomics Center on the Illumina HiSeq 2500 in RapidRun mode to generate 100bp paired-end reads.

Turning to `Nc1ncnc2c1c(OC(F)F)nn2[C@@H]1O[C@H](COS(N)(=O)=O)[C@@H](O)[C@H]1O` [ML901], the “reduced sensitivity of selected parasites” value (3D7 line under increasing compound concentrations over 4 months, versus parent) is on record as 10 fold. Moreover, the IC50 (Plasmodium falciparum, 3D7, read-out: IC50_72h, ML901-selected resistant clones) was determined as 28 nM.
